Data reported in patent US12378224B2 (Dong-A Socio Holdings Co., Ltd., priority 2016, dated 2025).

Columns and labels:
human MER (528-end) = human MER (528-end) (Homo sapiens (Human), UniProt Q12866); test: HTRF Kinase Activity Biochemical Assay (KinEASE-TK); conditions: 10 uM ATP
Summary of the method: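 Recombinant human MER (528-end) phosphorylated biotin-TK peptide substrate, 1 h at room temperature. Reaction stopped with detection buffer containing 0.375 nM Eu3+-cryptate anti-TK antibody and 0.062 uM streptavidin-XL665, 1 h further. Activity taken as HTRF ratio 665/620 nm ×10,000, 340 nm excitation.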

[1] = target: BCR fusion to kinase domain of MerTK (Ba/F3-MerTK) (Homo sapiens, UniProt Q12866); test: In Cell TAM Kinase Assay Using BaF3 Cellular System; assay type: cell-based, murine; conditions: Ba/F3 BCR-kinase fusion proliferation, 72 hours, Cell Titer Glo; kinase not given; read-out: IC50
BCR fusion to kinase domain of MerTK (Ba/F3-MerTK), sequence (Q12866 21-999 limits assumed, stated change not applied): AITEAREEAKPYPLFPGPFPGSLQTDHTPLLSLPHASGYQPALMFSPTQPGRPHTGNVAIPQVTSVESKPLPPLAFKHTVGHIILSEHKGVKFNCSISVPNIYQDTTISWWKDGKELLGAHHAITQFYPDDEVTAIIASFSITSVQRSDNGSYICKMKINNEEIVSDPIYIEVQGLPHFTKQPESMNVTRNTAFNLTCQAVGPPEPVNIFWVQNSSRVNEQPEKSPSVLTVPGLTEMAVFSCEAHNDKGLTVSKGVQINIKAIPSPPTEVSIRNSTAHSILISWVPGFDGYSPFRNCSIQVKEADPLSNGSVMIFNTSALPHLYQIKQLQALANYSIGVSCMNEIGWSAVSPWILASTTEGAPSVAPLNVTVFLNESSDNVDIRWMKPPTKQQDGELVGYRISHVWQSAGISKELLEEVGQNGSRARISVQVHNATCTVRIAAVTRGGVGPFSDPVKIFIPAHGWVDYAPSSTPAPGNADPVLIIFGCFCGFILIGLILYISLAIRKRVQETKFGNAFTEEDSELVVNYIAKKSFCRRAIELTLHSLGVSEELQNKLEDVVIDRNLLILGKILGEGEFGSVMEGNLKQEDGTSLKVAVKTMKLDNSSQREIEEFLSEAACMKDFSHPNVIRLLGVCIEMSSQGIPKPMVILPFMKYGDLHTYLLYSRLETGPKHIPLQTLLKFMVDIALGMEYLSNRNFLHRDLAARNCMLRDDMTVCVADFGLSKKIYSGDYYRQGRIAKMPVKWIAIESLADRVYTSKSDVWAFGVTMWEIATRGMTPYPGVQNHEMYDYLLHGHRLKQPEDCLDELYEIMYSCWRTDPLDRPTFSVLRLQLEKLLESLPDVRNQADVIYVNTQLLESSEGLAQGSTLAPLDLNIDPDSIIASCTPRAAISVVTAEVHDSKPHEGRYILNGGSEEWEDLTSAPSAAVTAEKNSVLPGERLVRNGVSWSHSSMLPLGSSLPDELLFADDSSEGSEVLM
Description: Three Ba/F3 cell lines (a murine IL-3 dependent pro-B cell line) expressing BCR fusions to the kinase domains of either MerTK (Ba/F3-MerTK), Axl (Ba/F3-Axl), or Tyro3 (Ba/F3-Tyro3) were purchased from Advanced Cellular Dynamics. The IL-3 independence of all 3 cell lines was confirmed. After thawing, the 3 Ba/F3 cell lines were split and maintained in cell culture media, which consisted of RPMI-1640-HEPES (Thermo-Cat #22400-089) with 1× Glutamax (Thermo-Cat #35050-061) and 10% FBS (Sigma-Cat #F4135 (500 ml), at a cell density range of 0.05×10^6−1×10^6 cells/mL 4 days before used in the routine screen. Compound plates were prepared using Nunc™ white 384-well optical bottom plates (ThermoFisher, USA) with compound in 25 nL dimethyl sulfoxide in each well. For routine assays, each of the 3 Ba/F3 cell lines was seeded at 1,000 cells per well with 25 µL of cell culture media directly into 384-well compound plates and incubated for 72 hours. Cell proliferation was then measured by adding 25 μL of Cell Titer Glo 2.0 (Promega, USA). After incubating with Cell Titer Glo at room temperature for 30 mins, the luminescence intensity, which quantifies the cell viability, was measured using an Envision™ plate reader (PerkinElmer, USA). […] In the presence of IL-3, the proliferation of the Ba/F3-Tyro3 cells is no longer dependent on the Tyro3 kinase activity.

human MER (528-end), sequence (Q12866 528-999 limits assumed): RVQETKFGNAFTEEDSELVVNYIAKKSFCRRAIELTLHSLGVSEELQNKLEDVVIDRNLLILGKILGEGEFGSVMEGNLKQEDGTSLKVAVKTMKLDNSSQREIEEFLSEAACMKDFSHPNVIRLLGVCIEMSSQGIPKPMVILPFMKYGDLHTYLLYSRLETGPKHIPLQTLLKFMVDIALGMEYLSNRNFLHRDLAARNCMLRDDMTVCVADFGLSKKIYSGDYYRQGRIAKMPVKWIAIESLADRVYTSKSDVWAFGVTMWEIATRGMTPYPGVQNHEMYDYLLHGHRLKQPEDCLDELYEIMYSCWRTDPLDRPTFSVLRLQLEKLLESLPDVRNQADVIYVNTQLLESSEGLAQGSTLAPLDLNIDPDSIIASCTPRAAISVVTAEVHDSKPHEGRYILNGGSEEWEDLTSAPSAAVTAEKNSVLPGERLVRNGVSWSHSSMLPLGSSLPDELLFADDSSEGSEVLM

Compound | IC50 (human MER (528-end)) | IC50 [1]
CCc1cccc(-c2ccc(C(=O)N3CC[C@@H](NC(=O)c4cc(-c5cnn(C)c5)cnc4N)C3)cc2)c1 [Example 657, (R)-2-amino-N-(1-(3′-ethyl-[1,1′-biphenyl]-4-carbonyl)pyrrolidin-3-yl)-5-(1-methyl-1H-pyrazol-4-yl)nicotinamide] | 10 to 100 nM | 100 to 500 nM
NC(=O)c1ccccc1-c1cnc(N)c(C(=O)N[C@@H]2CCN(C(=O)c3ccc(-c4ccc(F)cc4Cl)cc3)C2)c1 [Example 776, (R)-2-amino-5-(2-carbamoylphenyl)-N-(1-(2′-chloro-4′-fluoro-[1,1′-biphenyl]-4-carbonyl)pyrrolidin-3-yl)nicotinamide] | > 1000 nM | > 1000 nM
(R)-2-amino-N-(1-(2′-chloro-4′-fluoro-[1,1′-biphenyl]-4-carbonyl)pyrrolidin-3-yl)-5-(2-(piperidin-4-ylmethoxy)phenyl)nicotinamide [Example 771] | 100 to 1000 nM | > 1000 nM
CC(C)c1cccc(-c2ccc(C(=O)N3CC[C@@H](NC(=O)c4cc(-c5cnn(C)c5)cnc4N)C3)cc2)c1 [Example 658, (R)-2-amino-N-(1-(3′-isopropyl-[1,1′-biphenyl]-4-carbonyl)pyrrolidin-3-yl)-5-(1-methyl-1H-pyrazol-4-yl)nicotinamide] | 100 to 1000 nM | 500 to 1000 nM
Cn1cc(-c2cnc(N)c(C(=O)N[C@@H]3CCN(C(=O)c4cc5cc(Br)ccc5s4)C3)c2)cn1 [Example 708, (R)-2-amino-N-(1-(5-bromobenzo[b]thiophene-2-carbonyl)pyrrolidin-3-yl)-5-(1-methyl-1H-pyrazol-4-yl)nicotinamide] | 100 to 1000 nM | 500 to 1000 nM
Cn1cc(-c2cnc(N)c(C(=O)N[C@@H]3CCN(C(=O)c4ccc(-c5ccc(Oc6ccnc(Cl)c6)cc5)cc4)C3)c2)cn1 [Example 795, (R)-2-amino-N-(1-(4′-((2-chloropyridin-4-yl)oxy)-[1,1′-biphenyl]-4-carbonyl)pyrrolidin-3-yl)-5-(1-methyl-1H-pyrazol-4-yl)nicotinamide] | 10 to 100 nM | 500 to 1000 nM
CN(C)CCOc1ccc2cc(C(=O)N3CC[C@@H](NC(=O)c4cc(-c5cnn(C)c5)cnc4N)C3)ccc2c1 [Example 762] | 100 to 1000 nM | > 1000 nM
Cn1cc(-c2cnc(N)c(C(=O)N[C@@H]3CCN(C(=O)c4ccc(-c5ccc(F)cc5Cl)cc4)C3)c2)cn1 [Example 366, (R)-2-amino-N-(1-(2′-chloro-4′-fluoro-[1,1′-biphenyl]-4-carbonyl)pyrrolidin-3-yl)-5-(1-methyl-1H-pyrazol-4-yl)nicotinamide] | 10 to 100 nM | 100 to 500 nM
Cn1cc(-c2cnc(N)c(C(=O)N[C@@H]3CCN(C(=O)c4ccc5cc(OCCN6CCCC6)ccc5c4)C3)c2)cn1 [Example 765, (R)-2-amino-5-(1-methyl-1H-pyrazol-4-yl)-N-(1-(6-(2-(pyrrolidin-1-yl)ethoxy)-2-naphthoyl)pyrrolidin-3-yl)nicotinamide] | 100 to 1000 nM | > 1000 nM
Cn1cc(-c2cnc(N)c(C(=O)N[C@@H]3CCN(C(=O)c4ccc5cnccc5n4)C3)c2)cn1 [Example 700, (R)—N-(1-(1,6-naphthyridine-2-carbonyl)pyrrolidin-3-yl)-2-amino-5-(1-methyl-1H-pyrazol-4-yl)nicotinamide] | > 1000 nM | > 1000 nM
Cn1cc(-c2cnc(N)c(C(=O)N[C@@H]3CCN(C(=O)c4ccc(-c5ccc(Oc6ccc(C(=O)O)cc6)cc5)cc4)C3)c2)cn1 [Example 812, (R)-4-((4′-(3-(2-amino-5-(1-methyl-1H-pyrazol-4-yl)nicotinamido)pyrrolidine-1-carbonyl)-[1,1′-biphenyl]-4-yl)oxy)benzoic acid] | 10 to 100 nM | > 1000 nM
Cn1cc(-c2cnc(N)c(C(=O)N[C@@H]3CCN(C(=O)c4ccc(-c5ccc6ccccc6c5)cc4)C3)c2)cn1 [Example 750, (R)-2-amino-5-(1-methyl-1H-pyrazol-4-yl)-N-(1-(4-(naphthalen-2-yl)benzoyl)pyrrolidin-3-yl)nicotinamide] | 10 to 100 nM | > 1000 nM
Cn1cc(-c2cnc(N)c(C(=O)NC[C@H]3CCN(C(=O)c4ccc(-c5ccccc5)cc4)C3)c2)cn1 [Example 740, (R)—N-((1-([1,1′-biphenyl]-4-carbonyl)pyrrolidin-3-yl)methyl)-2-amino-5-(1-methyl-1H-pyrazol-4-yl)nicotinamide] | > 1000 nM | > 1000 nM
Nc1ncc(-c2cnn(Cc3cccnc3)c2)cc1C(=O)N[C@@H]1CCN(C(=O)c2ccc(-c3ccc(F)cc3Cl)cc2)C1 [Example 586, (R)-2-amino-N-(1-(2′-chloro-4′-fluoro-[1,1′-biphenyl]-4-carbonyl)pyrrolidin-3-yl)-5-(1-(pyridin-3-ylmethyl)-1H-pyrazol-4-yl)nicotinamide] | 10 to 100 nM | 500 to 1000 nM
Cn1cc(-c2cnc(N)c(C(=O)N[C@@H]3CCN(C(=O)c4ccc(C5=CCNCC5)cc4)C3)c2)cn1 [Example 753, (R)-2-amino-5-(1-methyl-1H-pyrazol-4-yl)-N-(1-(4-(1,2,3,6-tetrahydropyridin-4-yl)benzoyl)pyrrolidin-3-yl)nicotinamide] | > 1000 nM | > 1000 nM
Cn1cc(-c2cnc(N)c(C(=O)N[C@@H]3CCN(C(=O)c4ccc(-c5ccc(CN6CCOCC6)cc5)cc4)C3)c2)cn1 [Example 711, (R)-2-amino-5-(1-methyl-1H-pyrazol-4-yl)-N-(1-(4′-(morpholinomethyl)-[1,1′-biphenyl]-4-carbonyl)pyrrolidin-3-yl)nicotinamide] | > 1000 nM | > 1000 nM
Nc1ccccc1-c1cnc(N)c(C(=O)N[C@@H]2CCN(C(=O)c3ccc(-c4ccc(F)cc4Cl)cc3)C2)n1 [Example 779, (R)-3-amino-6-(2-aminophenyl)-N-(1-(2′-chloro-4′-fluoro-[1,1′-biphenyl]-4-carbonyl)pyrrolidin-3-yl)pyrazine-2-carboxamide] | 100 to 1000 nM | > 1000 nM
Cc1nc(-c2cccc(-c3ccc(C(=O)N4CC[C@@H](NC(=O)c5cc(-c6cnn(C)c6)cnc5N)C4)cc3)c2)no1 [Example 714, (R)-2-amino-N-(1-(3′-(5-methyl-1,2,4-oxadiazol-3-yl)-[1,1′-biphenyl]-4-carbonyl)pyrrolidin-3-yl)-5-(1-methyl-1H-pyrazol-4-yl)nicotinamide] | 10 to 100 nM | > 1000 nM
Cn1cc(-c2cnc(N)c(C(=O)N[C@@H]3CCN(C(=O)c4cc5c(C(F)(F)F)ccc(Cl)c5n4C)C3)c2)cn1 [Example 703, (R)-2-amino-N-(1-(7-chloro-1-methyl-4-(trifluoromethyl)-1H-indole-2-carbonyl)pyrrolidin-3-yl)-5-(1-methyl-1H-pyrazol-4-yl)nicotinamide] | > 1000 nM | > 1000 nM
Cn1cc(-c2cnc(N)c(C(=O)N[C@@H]3CCN(C(=O)c4ccc(OCc5ccc([N+](=O)[O-])cc5)cc4)C3)c2)cn1 [Example 769, (R)-2-amino-5-(1-methyl-1H-pyrazol-4-yl)-N-(1-(4-((4-nitrobenzyl)oxy)benzoyl)pyrrolidin-3-yl)nicotinamide] | 100 to 1000 nM | > 1000 nM
Cn1cc(-c2cnc(N)c(C(=O)N[C@@H]3CCN(C(=O)c4ccc(-c5cccc(-c6nnnn6C)c5)cc4)C3)c2)cn1 [Example 712, (R)-2-amino-5-(1-methyl-1H-pyrazol-4-yl)-N-(1-(3′-(1-methyl-1H-tetrazol-5-yl)-[1,1′-biphenyl]-4-carbonyl)pyrrolidin-3-yl)nicotinamide] | 10 to 100 nM | 500 to 1000 nM
